According to patent publication US20230391684A1, “NITROGEN FERTILIZER COMPOSITIONS BASED ON POLYPHOSPHATE CAGED STRUCTURE” (priority 2020, published 2023):

Key:
[1] = Text: The fertilizer composition will contain urea with reduced water solubility. […] Preferably no more than 30 to 60 wt. % of the urea is soluble. More preferably no more than 30 to 50 wt. % of urea is soluble.
XRD was of the granulated product which was powdered for recording of XRD.

[2] = Water leaching assay (2 g, 10 mL water, 8 min): water-soluble and water-insoluble nitrogen/urea; type: physicochemical; settings: 2 g leached with 10 mL water in 8 min, dried residue
Description: Determination of water-insoluble nitrogen: 2 g of the product in powder form, is weighed into a filter paper (Whatman 1) placed in a funnel. It is leached with 10 mL water added dropwise from a burette within a period of 8 min. The wet residue is placed together with the filter paper, in a petridish and dried at 50° C. After drying, the residue is ground and used for analysis of nitrogen.
Determination of water-soluble nitrogen: 2 g of the product in powder form, is weighed into a filter paper (Whatman 1) placed in a funnel. It is leached with 10 mL water added dropwise from a burette within a period of 8 min. The filtrate is placed together with the filter paper, in a petridish and dried at 50° C. After drying, the dried mass is weighed. It is analyzed for N as described above.

total N from fertilizer soluble in water [1]: 100 wt. % | urea content of residue after leaching with water [2]: no urea was detectable
SMILES: NC(N)=O [urea]
